Test results as given in ChEMBL document CHEMBL1123884, “Preparation and antileukemic screening of some new 6'-deoxyhexopyranosyladenine nucleosides” (J Med Chem, 1987).

Key:
L1210 [1] = assay: Antileukemic activity against L1210 cells in culture at a concentration of 10e-4 M; Inactive; format: functional, cell-based, Mus musculus
L1210 [2] = assay: Antileukemic activity against L1210 cells in culture at a concentration of 5 X 10e-4 M; extremely weak; format: functional, cell-based; conditions: Mus musculus
L1210 [3] = assay: Antileukemic activity against L1210 cells in culture at a concentration of 10e-4 M; Active; format: functional, cell-based, Mus musculus

IC50 (L1210 [1]) | Compound | other results
Not Active | C[C@@H]1O[C@@H](n2cnc3c(N)ncnc32)[C@H](O)[C@H](O)[C@@H]1O | –
Not Active | C[C@@H]1O[C@@](CO)(n2cnc3c(N)ncnc32)[C@@H](O)[C@@H]1O | –
– | Nc1ncnc2c1ncn2C1OCC(O)C(O)C1O (stereo unspecified) | inhibition (L1210 [2]): Extremely weak
– | C[C@H]1O[C@@H](n2cnc3c(N)ncnc32)[C@H](O)[C@@H](O)[C@H]1O | IC50 (L1210 [3]): Active
Not Active | C[C@H]1O[C@@H](n2cnc3c(N)ncnc32)[C@H](O)[C@@H](O)[C@@H]1O | –
Not Active | Nc1ncnc2c1ncn2C1OC(CO)C(O)C(O)C1O (stereo unspecified) | –
